Test [1] addresses T1, Pin1 (Homo sapiens, UniProt Q13526).
T1 construct: purchased Anaspec
Briefly: Evaluation of Pin1 enzyme inhibitory activity (Sensolyte Green Pin1 assay kit). The test is classed as biochemical. In outline:
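Compounds were tested at four working concentrations (100, 10, 1, 0.1 μM), mixed with Pin1 (50 μg/ml stock dilution), developer and substrate (1 μM as prepared). Fluorescence at 490/520 nm was recorded after 2 h in the dark at room temperature. Results were grouped into grades A–D by inhibiting concentration.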

Test [2] has as its system MDA-MB 231 triple negative breast cancer cell line. Kind of test: MDA-MB 231 protein expression inhibition (Western blotting, cycline D1 vs Vinculin). To be noted: Homo sapiens, compound 10 μM, 72 hours, cycline D1 Western blot, read-out: MBA-MB-231 (amount of the protein compared to the DMSO-treated control group). The test is classed as cell-based. How it is done:
In order to confirm the ability of the compound represented by formula 1 according to the present invention to inhibit the protein expression of MDA-MB 231 triple negative breast cancer cell line, the following experiment was performed, and the results are shown in Table 3 below.
MDA-MB-231 cells were cultured in a 5% CO2 incubator at 37° C. using RPMI medium supplemented with 10% FBS and 1% penicillin/streptomycin.
The cells were washed with PBS once a day, and then replaced with a new medium. The cells grown at the density of at least 90% 1 day before the experiment were detached using trypsin/EDTA, and then plated at the density of 100,000 per well in a 6-well plate.
On the next day of culture, the compound prepared in each example was treated at a concentration of 10 μM, and DMSO was treated at a concentration of 0.1% of the total as the control, followed by incubation for 72 hours. After 72 hours, the cells were washed twice with PBS, collected by scraping, and centrifuged at 13,000 rpm for 3 minutes to remove all the supernatant and only cells were taken.
RIPA buffer (containing 1× protease inhibitor and phosphatase inhibitor) was added to the prepared cells (80 μl/well), and the plate was shaken once every 5 minutes to disrupt the cells for a total of 15 minutes. The disrupted cells were centrifuged at 13,000 rpm for 15 minutes to collect only the supernatant protein. The obtained protein was quantified using a BCA protein quantification kit (Pierece, MA, USA), and a total of 10 μg of the protein was used for Western blotting.
The protein sample was isolated by 10% SDS-PAGE, and transferred to a PVDF membrane. Anti-human cycline D1 antibody (Cell signal) and anti-Vinculin antibody were bound to the protein sample, and the expression of the protein was measured by using an ECL reagent and LAS4000 equipment. The measurement results were quantified and generalized using ImageJ. The results are shown in Table 3 below by dividing the grades A to D according to the amount of the protein compared to the DMSO-treated control group.
(Immunoblotting shows a protein as a band on a membrane.)

In test [3] the test system is MCF7 cells (breast cancer cells). Kind of test: Cell viability of MCF7 cells (Cell-titer Glo). The test is classed as cell-based. To be noted: Homo sapiens. As for the experimental part: (§1) In order to confirm the inhibitory effect of the compound represented by formula 1 according to the present invention on the growth of MCF7, MCF7-SP, A2780 or A2780-SP cells, the following experiment was performed, and the results are shown in Tables 4 and 5 below.
MCF7 cells (breast cancer cells) were plated in a 96-well plate at the density of 3000 viable cells per well, and cultured in DMEM/High glucose medium supplemented with 10% FBS and 1% penicillin/streptomycin.
On the next day of culture, the cells were treated with the compound of Example 71, 76, 80, 84, 92, 99, 100 or 119, followed by culture for 3 days. Cell viability was evaluated by Cell-titer Glo (Promega, WC, USA), and luciferase activity was detected using a Tecan plate reader (Biocompare, USA).

The subject of test [4] is MCF7-SP cells (breast cancer stem cells). Briefly: Sphere cell viability of MCF7-SP cells (Cell-titer Glo). The test is classed as cell-based. As for the experimental part:
as §1
On the other hand, MCF7-SP cells (breast cancer stem cells) were plated in an Ultra-Low Attachment round bottom 96-well plate (corning) at the density of 1,500 viable cells per well, and cultured in cancer stem cell medium. The cancer stem cell medium is composed of the neurobasal medium supplemented with 20 ng/ml of bFGF, 10 ng/ml of EGF, 2.5 […], HEPES, Glutamax and B27.
On the next day of culture, the cells were treated with the compound of Example 71, 76, 80, 84, 92, 99, 100 or 119, followed by culture for 8 days. The medium containing the compound was added thereto once again on the 4th day. Sphere cell viability was evaluated by Cell-titer Glo (Promega, WC, USA), and luciferase activity was detected using a Tecan plate reader (Biocompare, USA).

Test [5] has as its system A2780 cells (ovarian cancer cells). Kind of test: Cell viability of A2780 cells (Cell-titer Glo). The test is classed as cell-based. To be noted: Homo sapiens. In outline:
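A2780 ovarian cancer cells seeded at 3000 viable cells/well in RPMI-1640 with 10% FBS, dosed the next day and grown 3 days. Viability measured by Cell-titer Glo luminescence.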

Test [6] concerns A2780-SP cells (ovarian cancer stem cells). Briefly: Sphere cell viability of A2780-SP cells (Cell-titer Glo). The test is classed as cell-based. In outline: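 A2780-SP ovarian cancer stem cells grown as spheres in ultra-low-attachment wells (1,500 cells/well) in neurobasal stem-cell medium with bFGF, EGF, B27. Compound added the day after plating, re-dosed on day 4, 8-day culture total; viability by CellTiter-Glo luminescence.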

[7] abbreviates: Table 2, read-out: concentration at which Pin1 inhibitory activity was exhibited.
Where [8] appears, read: concentration at which the Pin1 enzyme activity is inhibited, 2 hours at room temperature, fluorescence 490 nm/520 nm, read-out: Pin 1 inhibition.
[9] abbreviates: 72 h, cell viability, culture for 3 days, read-out: MCF7.
[10] abbreviates: MCF7, text summary of Table 4, read-out: MCF7 cell concentration.
Where [11] appears, read: 192 h, sphere cell viability, culture for 8 days, read-out: MCF7-SP.
The mark [12] stands for this setting: text summary of Table 4, read-out: MCF7-SP cell concentration.
Setting [13] is: 72 h, cell viability, culture for 3 days, read-out: A2780.
Where [14] appears, read: A2780, Table 5, read-out: A2780 cell concentration.
The mark [15] stands for this setting: 192 h, sphere cell viability, culture for 8 days, read-out: A2780-SP.
[16] abbreviates: Table 5, read-out: the concentration (second list of b710, cell line not named; matches A2780-SP column).

Read-outs that look alike come from different tables or passages of the source.

T1 sequence (Q13526 whole entry): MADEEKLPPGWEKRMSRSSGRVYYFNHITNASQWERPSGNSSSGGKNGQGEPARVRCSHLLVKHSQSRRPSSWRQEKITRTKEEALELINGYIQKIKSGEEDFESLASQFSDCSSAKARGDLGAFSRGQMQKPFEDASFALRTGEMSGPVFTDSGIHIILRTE

Take `CN1CCCN(CCCOc2ccc(S(=O)(=O)NCCCc3c[nH]c4ccc(Cl)cc34)cc2)CC1` [Example 83, N-(3-(5-chloro-1H-indol-3-yl)propyl)-4-(3-(4-methyl-1,4-diazepan-1-yl)propoxy)benzenesulfonamide]: the IC50 is less than 1000 nM in test [1] (setting [7]); less than 1000 nM in test [1] (setting [8]); 1000 to 10000 nM in test [3] (setting [9]); less than 10000 nM in test [3] (setting [10]); 1000 to 10000 nM in test [4] (setting [11]); less than 10000 nM in test [4] (setting [12]). Also, the IC50 in test [5] (setting [13]) is 1000 to 10000 nM; in test [5] (setting [14]), less than 10000 nM; in test [6] (setting [15]), less than 1000 nM; in test [6] (setting [16]), less than 1000 nM. The activity at 10 µM in test [2] fell in the range of 0 to 35%.
In the case of `O=S(=O)(NCCCc1c[nH]c2ccc(Cl)cc12)c1ccc(CCCCN2CCNCC2)cc1` [Example 91, N-(3-(5-chloro-1H-indol-3-yl)propyl)-4-(4-(piperazin-1-yl)butyl)benzenesulfonamide], the IC50 in test [1] (setting [7]) was less than 1000 nM; in test [1] (setting [8]), less than 1000 nM; in test [3] (setting [9]), 1000 to 10000 nM; in test [3] (setting [10]) it was less than 10000 nM; in test [4] (setting [11]), 1000 to 10000 nM; in test [4] (setting [12]), less than 10000 nM. Further, the values for the IC50 in test [5] (setting [13]), in test [6] (setting [15]) and in test [6] (setting [16]) were more than 10000 nM, less than 1000 nM and less than 1000 nM, respectively. Moreover, the activity at 10 µM in test [2] was 0 to 35%.
`CN1CCN(CCCNc2ccc(S(=O)(=O)NCCCc3c[nH]c4ccc(Cl)cc34)cc2)CC1` [Example 98, N-(3-(5-chloro-1H-indole-3-yl)propyl)-4-((3-(4-methylpiperazine-1-yl)propyl)amino)benzenesulfonamide]: the IC50 in test [1] (setting [7]) is less than 1000 nM; in test [1] (setting [8]), less than 1000 nM; in test [3] (setting [9]), more than 10000 nM; in test [4] (setting [11]), more than 10000 nM; in test [5] (setting [13]), 1000 to 10000 nM; in test [5] (setting [14]), less than 10000 nM. Besides, the IC50 in test [6] (setting [15]) was 1000 to 10000 nM. Also, the activity at 10 µM in test [2] is 0 to 35%.
With `O=S(=O)(NCCCc1c[nH]c2ccc(Cl)cc12)c1ccc(CCCCC2CCNCC2)cc1` [Example 99, N-(3-(5-chloro-1H-indole-3-yl)propyl)-4-(4-(piperidine-4-yl)butyl)benzenesulfonamide], the IC50 is less than 1000 nM in test [1] (setting [7]); less than 1000 nM in test [1] (setting [8]); 1000 to 10000 nM in test [3] (setting [9]); less than 10000 nM in test [3] (setting [10]); 1000 to 10000 nM in test [4] (setting [11]); less than 10000 nM in test [4] (setting [12]). For the same molecule, the IC50 is 1000 to 10000 nM in test [5] (setting [13]), less than 10000 nM in test [5] (setting [14]), less than 1000 nM in test [6] (setting [15]) and less than 1000 nM in test [6] (setting [16]). The activity at 10 µM in test [2] lay in the range of 0 to 35%.
In the case of `CN1CCN(c2cccc(Oc3ccc(S(=O)(=O)NCCCc4c[nH]c5ccc(Cl)cc45)cc3)c2)CC1` [Example 118, N-(3-(5-chloro-1H-indole-3-yl)propyl)-4-(3-(4-methylpiperazine-1-yl)phenoxy)benzenesulfonamide], the IC50 in test [1] (setting [7]) was less than 1000 nM; in test [1] (setting [8]), less than 1000 nM; in test [3] (setting [9]), 1000 to 10000 nM; in test [3] (setting [10]), less than 10000 nM; in test [4] (setting [11]) it was 1000 to 10000 nM; in test [4] (setting [12]), less than 10000 nM. In addition, the IC50 is more than 10000 nM in test [5] (setting [13]), less than 1000 nM in test [6] (setting [15]) and less than 1000 nM in test [6] (setting [16]). Moreover, the activity at 10 µM in test [2] was 50 to 70%.
